Experimental data as given in paper PMC2853259 (Analytical biochemistry, 2010).

Target: Paraoxonase 1 (PON1) (Homo sapiens, UniProt P27169)
Format: cell-based

Paraoxonase 1 (PON1), sequence (P27169 2-355): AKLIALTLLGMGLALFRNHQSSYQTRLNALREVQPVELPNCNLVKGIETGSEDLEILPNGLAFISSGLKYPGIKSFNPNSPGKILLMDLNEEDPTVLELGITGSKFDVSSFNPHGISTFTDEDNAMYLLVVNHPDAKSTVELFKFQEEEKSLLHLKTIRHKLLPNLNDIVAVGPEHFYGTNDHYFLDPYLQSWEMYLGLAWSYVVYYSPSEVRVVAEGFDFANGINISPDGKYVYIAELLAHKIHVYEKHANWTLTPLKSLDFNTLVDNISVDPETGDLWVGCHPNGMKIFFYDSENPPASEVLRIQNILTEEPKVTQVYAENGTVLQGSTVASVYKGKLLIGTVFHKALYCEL

## Oc1ccc2ccccc2n1 [2HQ, 2-hydroxyquinoline]
  IC50: 5.4 ± 3.6 µM
